Patent EP2931723B1, “NEW BICYCLIC COMPOUNDS AND THEIR USE AS ANTIBACTERIAL AGENTS AND -LACTAMASE INHIBITORS” (Fedora Pharmaceuticals Inc., priority 2012, dated 2014)

Key:
Assay in all cases: MIC, antibacterial and synergistic activity
Type in all cases: cell-based
K. pneumo JMI 4106 = K. pneumo JMI 4106 (KPC-3, TEM-1, SHV-12, SHV-141)
E. coli JMI 11103 = test system: E. coli JMI 11103
E. coli ATCC 25922 = E. coli ATCC 25922 (Wt)
E.coli JMI 4103 = E.coli JMI 4103 (KPC-2, Tem-1, CMY-Type)
P. aerug JMI 149 = P. aerug JMI 149 (Bla+++D+)
K. pneumo JMI 2674 = K. pneumo JMI 2674 (CTX-M15 (ESBL)); substance alone
K. pneumo JMI 2697 = K. pneumo JMI 2697 (IMP-4 (Cpase))
Description: (§1) In the Tables 10 - 12, compounds herein disclosed were tested in combination with various antibiotics against metallo β-lactamase producing bacteria.

K. pneumo JMI 2693 = K. pneumo JMI 2693 (NDM-1 (Cpase))
Description: as §1

E. coli JMI 2692 = E. coli JMI 2692 (NDM-1, TEM-1, CTX-M-15)
Description: as §1

E. coli JMI 10770 = E. coli JMI 10770 (CTX-M15 (Hyper ESBL))
Description: (§2) In the Tables 10 - 12, compounds herein disclosed were tested in combination with various antibiotics against metallo β-lactamase producing bacteria. Table 3: Synergy of the inhibitor Ex. 1 (4 µg/mL) in combination with antibiotics

E. coli JMI 2665 = test system: E. coli JMI 2665
Description: as §2

E. coli JMI 2671 = test system: E. coli JMI 2671
Outline: (§3)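 Combination MIC assay. The β-lactamase inhibitor is kept at 4 µg/mL while antibiotic susceptibility of MBL-expressing isolates is determined.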

E. coli JMI 10767 [1] = conditions: E. coli JMI 10767 (Wt)
Description: as §2

K.pneumo JMI 4109 = K.pneumo JMI 4109 (SHV-1, SHV-12)
Outline: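 Antibacterial synergy was assessed by pairing each inhibitor compound, at a constant concentration of 4 µg/mL, with β-lactam antibiotics. The combinations were run against bacterial strains that produce β-lactamases, and the readout was the minimum inhibitory concentration of the antibiotic in the presence of the inhibitor.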

K. pneumo JMI 2699 = K. pneumo JMI 2699 (VIM-1, CTX-M3)
Outline: as §3

E. coli JMI 10768 [2] = conditions: E. coli JMI 10768 (CTX-M15 (Weak ESBL))
Description: as §2

K. pneumo JMI 2681 = K. pneumo JMI 2681 (Oxa-48 (Cpase))
K. pneumo JMI 4088 = K. pneumo JMI 4088 (KPC-3 (Cpase)); substance alone
E. coli JMI 10768 [3] = conditions: E. coli JMI 10768 (CTX-M15 (Weak ESBL)); Meropenem + inhibitor at 4 µg/mL
E. coli JMI 4080 = test system: E. coli JMI 4080
P. aerug JMI 2686 = P. aerug JMI 2686 (KPC-2 (Cpase)); substance alone
E. coli JMI 10767 [4] = conditions: E. coli JMI 10767 (Wt); remark: listed apart in the source
[5] = Aztreonam + inhibitor at 4 µg/mL
[6] = Ceftazidime + inhibitor at 4 µg/mL
[7] = Meropenem + inhibitor at 4 µg/mL

Compound: O=C(NO[C@H]1CCNC1)[C@@H]1CC[C@@H]2CN1C(=O)N2OS(=O)(=O)O [Ex. 1, (2S,5R)-7-Oxo-N-[(3S)-pyrrolidin-3-yloxy]-6-(sulfooxy)-1,6-diazabicyclo[3.2.1]octane-2-carboxamide]
- MIC Aztreonam + inhibitor (K. pneumo JMI 4106; [5]): 0.25 µg/mL
- MIC Ceftazidime + inhibitor (K. pneumo JMI 4106; [6]): ≤0.25 µg/mL
- MIC Meropenem + inhibitor (K. pneumo JMI 4106; [7]): ≤.031 µg/mL
- MIC (K. pneumo JMI 4106; substance alone, read-out: MIC): 16 µg/mL
- MIC Aztreonam + inhibitor (E. coli JMI 11103; E. coli JMI 11103 (CTX-M15 (Intermediate ESBL)), Aztreonam + inhibitor at 4 µg/mL): ≤.062 µg/mL
- MIC Ceftazidime + inhibitor (E. coli JMI 11103; E. coli JMI 11103 (CTX-M15 (Intermediate ESBL)), Ceftazidime + inhibitor at 4 µg/mL): ≤0.25 µg/mL
- MIC Meropenem + inhibitor (E. coli JMI 11103; E. coli JMI 11103 (CTX-M15 (Intermediate ESBL)), Meropenem + inhibitor at 4 µg/mL): ≤.031 µg/mL
- MIC (E. coli JMI 11103; Escherichia coli, JMI11103, E. coli JMI 11103 (CTX-M15 (Intermediate ESBL)), substance alone): 8 µg/mL
- MIC Aztreonam + inhibitor (E. coli ATCC 25922; [5]): ≤.062 µg/mL
- MIC Ceftazidime + inhibitor (E. coli ATCC 25922; [6]): ≤0.25 µg/mL
- MIC Meropenem + inhibitor (E. coli ATCC 25922; [7]): ≤.031 µg/mL
- MIC (E. coli ATCC 25922; Escherichia coli, ATCC25922, substance alone): 8 µg/mL
- MIC Aztreonam + inhibitor (E.coli JMI 4103; [5]): >4 µg/mL
- MIC Ceftazidime + inhibitor (E.coli JMI 4103; [6]): 8 µg/mL
- MIC Meropenem + inhibitor (E.coli JMI 4103; [7]): ≤.031 µg/mL
- MIC (E.coli JMI 4103; Escherichia coli, JMI4103, substance alone): 16 µg/mL
- MIC Aztreonam + inhibitor (P. aerug JMI 149; [5]): >4 µg/mL
- MIC Ceftazidime + inhibitor (P. aerug JMI 149; [6]): 4 µg/mL
- MIC Meropenem + inhibitor (P. aerug JMI 149; [7]): 0.5 µg/mL
- MIC (P. aerug JMI 149; substance alone, read-out: MIC): > 16 µg/mL
- MIC (K. pneumo JMI 2674): > 16 µg/mL
- MIC Aztreonam + inhibitor (K. pneumo JMI 2697; [5]): 0.25 µg/mL
- MIC Ceftazidime + inhibitor (K. pneumo JMI 2697; [6]): 16 µg/mL
- MIC Meropenem + inhibitor (K. pneumo JMI 2697; [7]): >2 µg/mL
- MIC (K. pneumo JMI 2697; substance alone): 16 µg/mL
- MIC Aztreonam + inhibitor (K. pneumo JMI 2693; [5]): 0.125 µg/mL
- MIC Ceftazidime + inhibitor (K. pneumo JMI 2693; [6]): ≤0.25 µg/mL
- MIC Meropenem + inhibitor (K. pneumo JMI 2693; [7]): 0.062 µg/mL
- MIC (K. pneumo JMI 2693; substance alone): > 16 µg/mL
- MIC Aztreonam + inhibitor (E. coli JMI 2692; [5]): 0.25 µg/mL
- MIC Ceftazidime + inhibitor (E. coli JMI 2692; [6]): ≤0.25 µg/mL
- MIC Meropenem + inhibitor (E. coli JMI 2692; [7]): ≤.031 µg/mL
- MIC (E. coli JMI 2692; Escherichia coli, JMI2692, substance alone, read-out: MIC): 4 µg/mL
- MIC Aztreonam + inhibitor (E. coli JMI 10770; [5]): ≤.062 µg/mL
- MIC Ceftazidime + inhibitor (E. coli JMI 10770; [6]): ≤0.25 µg/mL
- MIC Meropenem + inhibitor (E. coli JMI 10770; [7]): ≤.031 µg/mL
- MIC Aztreonam + inhibitor (E. coli JMI 2665; E. coli JMI 2665 (CMY-2 (Plasmid Cpase)), Aztreonam + inhibitor at 4 µg/mL): ≤.062 µg/mL
- MIC Ceftazidime + inhibitor (E. coli JMI 2665; E. coli JMI 2665 (CMY-2 (Plasmid Cpase)), Ceftazidime + inhibitor at 4 µg/mL): ≤0.25 µg/mL
- MIC Meropenem + inhibitor (E. coli JMI 2665; E. coli JMI 2665 (CMY-2 (Plasmid Cpase)), Meropenem + inhibitor at 4 µg/mL): ≤.031 µg/mL
- MIC (E. coli JMI 2665; Escherichia coli, JMI2665): 4 µg/mL
- MIC Aztreonam + inhibitor (E. coli JMI 2671; E. coli JMI 2671 (VIM-19 (Cpase)), Aztreonam + inhibitor at 4 µg/mL): ≤.062 µg/mL
- MIC Ceftazidime + inhibitor (E. coli JMI 2671; E. coli JMI 2671 (VIM-19 (Cpase)), Ceftazidime + inhibitor at 4 µg/mL): 2 µg/mL
- MIC Meropenem + inhibitor (E. coli JMI 2671; E. coli JMI 2671 (VIM-19 (Cpase)), Meropenem + inhibitor at 4 µg/mL): 2 µg/mL
- MIC (E. coli JMI 2671; Escherichia coli, JMI2671, E. coli JMI 2671 (VIM-19 (Cpase)), substance alone): 4 µg/mL
- MIC Aztreonam + inhibitor (E. coli JMI 10767 [1]; [5]): ≤.062 µg/mL
- MIC Ceftazidime + inhibitor (E. coli JMI 10767 [1]; [6]): ≤0.25 µg/mL
- MIC Aztreonam + inhibitor (K.pneumo JMI 4109; [5]): ≤.062 µg/mL
- MIC Ceftazidime + inhibitor (K.pneumo JMI 4109; [6]): ≤0.25 µg/mL
- MIC Meropenem + inhibitor (K.pneumo JMI 4109; [7]): ≤.031 µg/mL
- MIC Aztreonam + inhibitor (K. pneumo JMI 2699; [5]): 0.5 µg/mL
- MIC Ceftazidime + inhibitor (K. pneumo JMI 2699; [6]): 16 µg/mL
- MIC Meropenem + inhibitor (K. pneumo JMI 2699; [7]): 2 µg/mL
- MIC (K. pneumo JMI 2699; substance alone, read-out: MIC): 8 µg/mL
- MIC Aztreonam + inhibitor (E. coli JMI 10768 [2]; [5]): ≤.062 µg/mL
- MIC Ceftazidime + inhibitor (E. coli JMI 10768 [2]; [6]): ≤0.25 µg/mL
- MIC (E. coli JMI 10768 [2]; Escherichia coli, JMI10768, substance alone): 8 µg/mL
- MIC Aztreonam + inhibitor (K. pneumo JMI 2681; [5]): 4 µg/mL
- MIC Ceftazidime + inhibitor (K. pneumo JMI 2681; [6]): 4 µg/mL
- MIC Meropenem + inhibitor (K. pneumo JMI 2681; [7]): >2 µg/mL
- MIC (K. pneumo JMI 2681; substance alone, read-out: MIC): > 16 µg/mL
- MIC (K. pneumo JMI 4088): 4 µg/mL
- MIC Meropenem + inhibitor (E. coli JMI 10768 [3]): ≤.031 µg/mL
- MIC Aztreonam + inhibitor (E. coli JMI 4080; E. coli JMI 4080 (Tem-10), Aztreonam + inhibitor at 4 µg/mL): 1 µg/mL
- MIC Ceftazidime + inhibitor (E. coli JMI 4080; E. coli JMI 4080 (Tem-10), Ceftazidime + inhibitor at 4 µg/mL): 1 µg/mL
- MIC Meropenem + inhibitor (E. coli JMI 4080; E. coli JMI 4080 (Tem-10), Meropenem + inhibitor at 4 µg/mL): ≤.031 µg/mL
- MIC (E. coli JMI 4080; Escherichia coli, JMI4080, E. coli JMI 4080 (Tem-10), substance alone): 8 µg/mL
- MIC (P. aerug JMI 2686): > 16 µg/mL
- MIC Meropenem + inhibitor (E. coli JMI 10767 [4]; [7]): ≤.031 µg/mL
- MIC (E. coli JMI 10767 [4]; Escherichia coli, JMI10767, substance alone): 8 µg/mL
